Results: article PMC6646865, “Design and Synthesis of Imidazole and Triazole Pyrazoles as Mycobacterium Tuberculosis CYP121A1 Inhibitors” (ChemistryOpen, 2019)
≈ marks a conversion by molar mass, not a printed value. Where two headings read alike, the source gives them in different places.

Key:
[1] = test system: M. tuberculosis H37Rv; assay: Antimycobacterial activity, REMA (Resazurin Microtiter Assay) MIC; assay type: cell-based, Mycobacterium tuberculosis; conditions: lowest concentration giving 90 % inhibition, 7 days 37 °C
[2] = molecular target: T1, CYP121A1 (Mycobacterium tuberculosis, UniProt P9WPP7); assay: biochemical; assay type: binding; conditions: for Soret peak shift: Soret maximum ligand-free to ligand-bound CYP121A1; for Kd: UV-vis optical titration, 3–5 μM CYP121A1, 25 °C, pH 7.85, triplicate; for Soret maxima shifting by: extent of the Soret absorbance red shift on binding
T1 construct: made in house

[3] = test system: M. tuberculosis H37Rv; design: method as in PMID 29185746; conditions: lead compounds; cited from earlier work
[4] = molecular target: T1, CYP121A1; conditions: cited from earlier work; for Soret peak shift: lead compounds and cYY (type I shift for cYY); for Kd: lead compounds and natural substrate cYY; for Soret peak shift to: azole antifungal drugs binding Mtb CYP121A1
[5] = Mycobacterium tuberculosis, H37RV, 168 h, read-out: MIC

T1 sequence (P9WPP7 whole entry): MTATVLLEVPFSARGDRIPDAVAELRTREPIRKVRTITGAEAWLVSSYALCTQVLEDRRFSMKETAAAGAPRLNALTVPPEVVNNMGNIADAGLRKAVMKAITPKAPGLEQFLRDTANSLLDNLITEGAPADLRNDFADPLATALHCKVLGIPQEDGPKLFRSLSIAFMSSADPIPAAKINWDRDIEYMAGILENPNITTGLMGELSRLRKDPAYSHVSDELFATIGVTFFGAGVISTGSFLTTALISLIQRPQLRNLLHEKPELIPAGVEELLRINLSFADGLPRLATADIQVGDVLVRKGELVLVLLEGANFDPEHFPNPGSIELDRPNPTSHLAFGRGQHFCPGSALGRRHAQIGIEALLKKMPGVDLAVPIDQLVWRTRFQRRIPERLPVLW

Compound	MIC [1, 5] [µg/mL]	Soret peak shift [2] [nm]	Kd [2] [µM]	melting point [°C]	other results
c1ccc(-n2cc(Cn3ccnc3)c(-c3ccncc3)n2)cc1 [10 a, 4‐(4‐((1H‐Imidazol‐1‐yl)methyl)‐1‐phenyl‐1H‐pyrazol‐3‐yl)pyridine]	12.5 to 25 (≈ 41.5 to 83 µM)	416.5 to 419	60.5 ± 10.5	80 to 82	MIC [1]: 12.5 µg/mL (≈ 41.5 µM)
c1ccc(-n2cc(Cn3ccnc3)c(-c3cccnc3)n2)cc1 [10 b, 3‐(4‐((1H‐Imidazol‐1‐yl)methyl)‐1‐phenyl‐1H‐pyrazol‐3‐yl)pyridine]	12.5 to 25 (≈ 41.5 to 83 µM)	416.5 to 421	53.6 ± 6.8		MIC [1]: 12.5 µg/mL (≈ 41.5 µM)
CCc1ccc(-c2nn(-c3ccccc3)cc2Cn2ccnc2)cc1 [10 c, 4‐((1H‐Imidazol‐1‐yl)methyl)‐3‐(4‐ethylphenyl)‐1‐phenyl‐1H‐pyrazole]	1.56 (≈ 4.76 µM)	416.5 to 420	18.3 ± 3.4	74 to 76	
CCCc1ccc(-c2nn(-c3ccccc3)cc2Cn2ccnc2)cc1 [10 d, 4‐((1H‐Imidazol‐1‐yl)methyl)‐1‐phenyl‐3‐(4‐propylphenyl)‐1H‐pyrazole]	0.781 (≈ 2.28 µM)	416.5 to 420	53.7 ± 5.9		
CC(C)c1ccc(-c2nn(-c3ccccc3)cc2Cn2ccnc2)cc1 [10 e, 4‐((1H‐Imidazol‐1‐yl)methyl)‐3‐(4‐isopropylphenyl)‐1‐phenyl‐1H‐pyrazole]	1.56 (≈ 4.56 µM)	416.5 to 423	22.5 ± 3.5		Soret maxima shifting by [2]: 6.5 nm
CC(C)Cc1ccc(-c2nn(-c3ccccc3)cc2Cn2ccnc2)cc1 [10 f, 4‐((1H‐Imidazol‐1‐yl)methyl)‐3‐(4‐isobutylphenyl)‐1‐phenyl‐1H‐pyrazole]	1.56 (≈ 4.38 µM)	416.5 to 423.5	0.22 ± 0.01		Soret maxima shifting by [2]: 7 nm
CC(C)(C)c1ccc(-c2nn(-c3ccccc3)cc2Cn2ccnc2)cc1 [10 g, 4‐((1H‐Imidazol‐1‐yl)methyl)‐3‐(4‐(tert‐butyl)phenyl)‐1‐phenyl‐1H‐pyrazole]	1.56 (≈ 4.38 µM)	416.5 to 419.5	4.81 ± 0.31	116 to 117	
c1ccc(-c2ccc(-c3nn(-c4ccccc4)cc3Cn3ccnc3)cc2)cc1 [10 h, 4‐((1H‐Imidazol‐1‐yl)methyl)‐3‐([1,1′‐biphenyl]‐4‐yl)‐1‐phenyl‐1H‐pyrazole]	3.12 (≈ 8.3 µM)	416.5 to 423.5	2.91 ± 0.14	114 to 115	Soret maxima shifting by [2]: 7 nm
c1ccc(-n2cc(Cn3ccnc3)c(-c3ccc4c(c3)OCO4)n2)cc1 [10 i, 4‐((1H‐Imidazol‐1‐yl)methyl)‐3‐(benzo[d][1,3]dioxol‐5‐yl)‐1‐phenyl‐1H‐pyrazole]	3.12 (≈ 9.07 µM)	416.5 to 422.5	10.1 ± 0.3	62 to 64	
Clc1[nH]c2ccccc2c1-c1nn(-c2ccccc2)cc1Cn1ccnc1 [10 j, 3‐(4‐((1H‐Imidazol‐1‐yl)methyl)‐1‐phenyl‐1H‐pyrazol‐3‐yl)‐2‐chloro‐1H‐indole]	12.5 to 25 (≈ 33.4 to 66.9 µM)	416.5 to 423.5	3.31 ± 0.05		MIC [1]: 25 µg/mL (≈ 66.9 µM); Soret maxima shifting by [2]: 7 nm
c1ccc(-n2cc(Cn3cncn3)c(-c3ccncc3)n2)cc1 [11 a, 4‐(4‐((1H‐1,2,4‐Triazol‐1‐yl)methyl)‐1‐phenyl‐1H‐pyrazol‐3‐yl)pyridine]	> 100	416.5 to 417.5	115 ± 27	98 to 100	
c1ccc(-n2cc(Cn3cncn3)c(-c3cccnc3)n2)cc1 [11 b, 3‐(4‐((1H‐1,2,4‐Triazol‐1‐yl)methyl)‐1‐phenyl‐1H‐pyrazol‐3‐yl)pyridine]	> 100	416.5 to 417.5	250 ± 51.6	110 to 112	
O=C(NCCCn1ccnc1)c1cn(-c2ccccc2)nc1-c1ccncc1 [13 a, N‐(3‐(1H‐Imidazol‐1‐yl)propyl)‐1‐phenyl‐3‐(pyridin‐4‐yl)‐1H‐pyrazole‐4‐carboxamide]	100 (≈ 269 µM)	416.5 to 423.5	83.2 ± 3.9	104 to 106	Soret maxima shifting by [2]: 7 nm
O=C(NCCCn1ccnc1)c1cn(-c2ccccc2)nc1-c1cccnc1 [13 b, N‐(3‐(1H‐Imidazol‐1‐yl)propyl)‐1‐phenyl‐3‐(pyridin‐3‐yl)‐1H‐pyrazole‐4‐carboxamide]	> 100	416.5 to 417.5	85.6 ± 12.4	80 to 82	
O=C(NCc1ccncc1)c1cn(-c2ccccc2)nc1-c1ccncc1 [14 a, 1‐Phenyl‐3‐(pyridin‐4‐yl)‐N‐(pyridin‐4‐ylmethyl)‐1H‐pyrazole‐4‐carboxamide]	> 100	416.5 to 419.5	219 ± 13.6	206 to 208	
O=C(NCc1ccncc1)c1cn(-c2ccccc2)nc1-c1cccnc1 [14 b, 1‐Phenyl‐3‐(pyridin‐3‐yl)‐N‐(pyridin‐4‐ylmethyl)‐1H‐pyrazole‐4‐carboxamide]	> 100	416.5 to 417.5	39 ± 8.2	206 to 208	
Clc1ccccc1C(c1ccccc1)(c1ccccc1)n1ccnc1 [Clotrimazole, clotrimazole, reference compound]	20 (≈ 58 µM)				
c1ccc(-c2nn(-c3ccccc3)cc2Cn2ccnc2)cc1 [Compound 1, (1,3‐diphenyl)‐4‐((1,3‐imidazol‐1‐yl)methyl)‐1H‐pyrazole]					MIC [3]: 12.5 µg/mL (≈ 41.6 µM); Soret peak shift [4]: 416.5 to 424 nm; Kd [4]: 2.6 ± 0.2 µM
c1ccc(-c2nn(-c3ccccc3)cc2Cn2cncn2)cc1 [Compound 2, 1‐((1,3‐diphenyl‐1H‐pyrazol‐4‐yl)methyl)‐1H‐1, 2, 4triazole]					MIC [3]: 50 µg/mL (≈ 166 µM); Soret peak shift [4]: 416.5 to 422.5 nm; Kd [4]: 73.5 ± 0.7 µM
COc1ccc(-n2nc(Cn3ccnc3)cc2C)cc1 [Compound 23, 3‐((1H‐Imidazol‐1‐yl)methyl)‐1‐(4‐methoxyphenyl)‐5‐methyl‐1H‐pyrazole]		416.5 to 418	34.5 ± 4.8		
COc1ccc(-n2nc(Cn3cncn3)cc2C)cc1 [Compound 24, 1‐((1‐(4‐Methoxyphenyl)‐5‐methyl‐1H‐pyrazol‐3‐yl)methyl)‐1H‐1,2,4‐triazole]	> 100	416.5 to 418	105 ± 7		
COc1ccc(-n2nc(C)cc2Cn2ccnc2)cc1 [Compound 25, 5‐((1H‐Imidazol‐1‐yl)methyl)‐1‐(4‐methoxyphenyl)‐3‐methyl‐1H‐pyrazole]	25 (≈ 93.2 µM)	416.5 to 418.5	22.9 ± 0.2		
COc1ccc(-n2nc(C)cc2Cn2cncn2)cc1 [Compound 26, 1‐((1‐(4‐Methoxyphenyl)‐3‐methyl‐1H‐pyrazol‐5‐yl)methyl)‐1H‐1,2,4‐triazole]	100 (≈ 371 µM)		98.3 ± 7.4	47 to 48	
OC(Cn1cncn1)(Cn1cncn1)c1ccc(F)cc1F [Fluconazole, fluconazole, reference compound]	> 100				
Clc1ccc(COC(Cn2ccnc2)c2ccc(Cl)cc2Cl)cc1 (centres unmarked) [econazole]					Soret peak shift to [4]: 421–423.5 nm
CC(=O)N1CCN(c2ccc(OCC3COC(Cn4ccnc4)(c4ccc(Cl)cc4Cl)O3)cc2)CC1 (centres unmarked) [ketoconazole]					Soret peak shift to [4]: 421–423.5 nm
Clc1ccc(COC(Cn2ccnc2)c2ccc(Cl)cc2Cl)c(Cl)c1 (centres unmarked) [miconazole]					Soret peak shift to [4]: 421–423.5 nm
